Experiments:
CYP2C19 = CYP2C19 (Homo sapiens, UniProt P33261); conditions: cited from earlier work
TSC-associated seizures = experiment: Phase 2 open-label trial of adjunctive ganaxolone in TSC-related epilepsy (Part A): seizure frequency; format: in vivo, human
Procedure: A Phase 2 open-label 12 week trial of adjunctive ganavolone treatment (Part A) in tuberous sclerosis complex-related epilepsy followed by long-term treatment (Part B) was conducted. This was a multicenter study conducted at 7 sites in the United States.
The primary objectives were to assess preliminary safety and efficacy of ganavolone (GNX) as adjunctive therapy for the treatment of primary seizure types in patients with genetically- or clinically-confirmed TSC-related epilepsy through the end of the 12 week treatment period. The primary seizure types (focal motor seizures without impairment of consciousness or awareness, focal seizures with impairment of consciousness or awareness, focal seizures evolving to bilateral, tonic-clonic convulsive seizures, and generalized motor seizures including tonic-clonic, bilateral tonic, bilateral clonic, or atonic/drop seizures) are identified to be the most common, easily identifiable/countable by a parent/caregiver/legally authorized representative (LAR), and most consequential to the patient's quality of life.
(§1) This was an open label (OL) proof of concept study of adjunctive GNX treatment in patients with a confirmed clinical diagnosis of TSC and/or a mutation in either the TSC1 or TSC2 gene. The trial consisted of two parts: Part A consisted of a 4-week baseline period followed by a 12-week treatment period (4-week titration and 8-week maintenance). For patients not continuing in the OLE period (Part B), a 2-week taper period followed by a 2-week safety period followed. The main difference between Part A and Part B is the length of treatment, less frequent assessments, and the ability to alter drug doses (both GNX and other antiepileptic drug [AED] treatments which includes initiating and stopping other medications) based on investigator evaluation of the patient's clinical course during Part B. Patients with a seizure frequency reduction rate of ≥35% during the 12-week treatment period in Part A compared to baseline were eligible to continue into Part B (“OLE eligible”).
(§2) After meeting all eligibility criteria, approximately 30 patients aged 2 to 65 years (inclusive) with TSC-related epilepsy were enrolled to receive GNX for a total of 12 weeks (4 week titration, 8 week maintenance) in addition to their standard anti-seizure medication(s) (ASMs). Patients were titrated to 63 mg/kg/day (maximum 1800 mg/day) over 4 weeks, and then maintained at that dose for another 8 weeks. Patients who were not able to tolerate 63 mg/kg/day (or maximum 1800 mg/day) were eligible to be maintained on a lower dose after discussion with the medical monitor. A minimum dose of 33 mg/kg/day or 900 mg/day was generally required during the maintenance period.
Patients were required to complete a daily diary to determine GNX's effect on seizures. Days without seizures should also have been noted. Additional clinician and caregiver administered instruments were used to assess the efficacy of GNX in TSC and included: Caregiver Global Impression of Change (CGI-C)—Target Behavior and Clinical Global Impression—Improvement (CGI-I) caregiver and CGI-I clinician.
Ganaxolone was administered in increments of 15 mg/kg/day up to 63 mg/kg/day (maximum 1800 mg/day) given as an oral suspension with food. Patients weighing ≤28 kg were dosed on an mg/kg basis. Patients weighing >28 kg were dosed on a fixed regimen in increments of 450 mg/day up to 1800 mg/day.
Seizures: All seizure types and number of seizures were to be recorded daily in a diary. Days in which no seizures occur were also to be noted.
Primary Efficacy Endpoint: The primary efficacy endpoint was the percent change in 28-day primary seizure frequency through the end of the 12-week treatment period (4-week titration and 8-week maintenance) relative to the 4-week baseline. […]

[1] = Phase 2 open-label TSC trial (Part A): safety and tolerability, adverse events; format: in vivo, human
Description: as §1, §2
(§3) Pharmacokinetics, Safety and tolerability were assessed.
If the next dose was still not tolerated, the patient could drop back to the next lower dose step. A minimum dose of 33 mg/kg/day or 900 mg/day was generally required following the escalation period, during the maintenance period.

[2] = Phase 2 open-label TSC trial (Part A): ganaxolone plasma/serum concentration; format: in vivo, human
Procedure: as §3

[3] = tested on: major motor seizures in CDD; experiment: Marigold phase 3 trial of ganaxolone in CDKL5 deficiency disorder: seizure frequency; format: in vivo, human
Description: (§4) The Marigold Study was a phase 3 clinical trial of ganaxolone for the treatment of CDD. The trial met primary endpoint-median 28-day major motor seizure frequency reduction of 32.2 percent compared to 4.9 percent for placebo. […] The most frequent adverse event was somnolence.
(See, FIG. 10.) These effects are unlikely secondary to age or weight, which were balanced between the two groups.

[4] = Marigold phase 3 trial of ganaxolone in CDD: safety and tolerability; format: in vivo, human; conditions: CDD patients
Description: as §4

[5] = Human pharmacokinetic studies of ganaxolone and CBD; format: in vivo
Description: Without wishing to be bound by any particular theory, the inventors believe that the results of the clinical study can be explained by a previously unknown and unexpected drug interaction between ganaxolone and CBD. This is unexpected because ganaxolone is metabolized by CYP3A4/5. Landmark et al. Epilepsia 2021 62:857-873. […] Accordingly, it was unexpected that ganaxolone plasma concentrations, tolerability and efficacy would be affected by concomitant CBD. […] Thus, without wishing to be bound by any particular theory or mechanism, the unexpected drug-drug interaction could be a pharmacodynamic interaction.

CYP3A4/5 = conditions: cited from earlier work
[6] = tested on: UGT1A9, UGT2B7, CYP1A2, CYP2B6, CYP2C8, CYP2C9 or CYP2C19; conditions: cited from earlier work

Sequence of CYP2C19 (P33261 whole entry): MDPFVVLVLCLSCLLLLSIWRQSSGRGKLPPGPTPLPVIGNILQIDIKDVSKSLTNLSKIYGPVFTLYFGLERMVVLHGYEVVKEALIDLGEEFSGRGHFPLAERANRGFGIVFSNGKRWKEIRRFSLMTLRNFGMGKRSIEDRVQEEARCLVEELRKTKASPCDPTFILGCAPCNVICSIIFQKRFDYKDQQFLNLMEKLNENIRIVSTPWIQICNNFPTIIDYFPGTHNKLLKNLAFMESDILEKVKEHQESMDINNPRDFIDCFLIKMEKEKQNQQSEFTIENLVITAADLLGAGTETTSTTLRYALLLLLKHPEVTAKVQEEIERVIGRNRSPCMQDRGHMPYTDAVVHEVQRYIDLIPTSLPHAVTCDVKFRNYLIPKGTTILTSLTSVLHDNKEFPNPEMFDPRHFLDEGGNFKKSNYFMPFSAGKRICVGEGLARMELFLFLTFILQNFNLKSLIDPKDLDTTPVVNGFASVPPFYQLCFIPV

## C=C(C)[C@@H]1CCC(C)=C[C@H]1c1c(O)cc(CCCCC)cc1O [EPIDIOLEX, cannabidiol]
CYP2C19; coadministration with clobazam (a CYP2C19 substrate)
  increase in plasma concentration of N-desmethylclobazam: 3 fold
CYP2C19; coadministration with clobazam
  effect on clobazam levels: no effect

## CC(=O)[C@H]1CC[C@H]2[C@@H]3CC[C@H]4C[C@](C)(O)CC[C@]4(C)[C@H]3CC[C@]12C [ganaxolone, 3α-hydroxy-3β-methyl-5α-pregnan-20-one]
TSC-associated seizures; 23 enrolled patients, 12-week treatment vs 4-week baseline
  median reduction in TSC-associated seizure frequency: 16.6%
TSC-associated seizures; all enrolled patients (n=23)
  patients achieving ≥50% reduction in TSC-associated seizure frequency: 30.4%
TSC-associated seizures; concomitant CBD 10 mg/kg/day or less
  efficacy in patients receiving concomitant EPIDIOLEX (CBD) at 10 mg/kg/day or less: robust efficacy
TSC-associated seizures; concomitant CBD above 10 mg/kg
  suppression of seizure (efficacy) with concomitant CBD above 10 mg/kg vs no CBD or CBD at or below 10 mg/kg: lower suppression of seizure
TSC-associated seizures; including those on concomitant cannabidiol and everolimus
  fraction of patients with robust reduction in TSC-associated seizures: ⅓
TSC-associated seizures; n=19
  median percent reduction in focal seizure frequencies: 25.2%
TSC-associated seizures; patients that received concomitant cannabidiol (n=12)
  patients achieving ≥50% reduction in TSC-associated seizure frequency: 25%
TSC-associated seizures; patients that received concomitant everolimus (n=11)
  patients achieving ≥50% reduction in TSC-associated seizure frequency: 36.4%
TSC-associated seizures; patients without concomitant cannabidiol (n=11) compared with patients on cannabidiol
  median percent reduction in TSC-associated seizures, no concomitant cannabidiol vs concomitant cannabidiol: greater median percent reduction
[1]; 23 enrolled
  patients that discontinued Part A, number: 6 patients
  patients that discontinued Part A, percent: 26.1%
[1]; 23 enrolled TSC patients
  fatigue, number of patients reporting: 3 patients
  fatigue, percent of patients reporting: 13.0%
  overall tolerability: generally well-tolerated
  patients with seizure assessed by the principal investigator as treatment related: One
  sedation, number of patients reporting: 3 patients
  sedation, percent of patients reporting: 13.0%
  somnolence, number of patients reporting: 10 patients
  somnolence, percent of patients reporting: 43.5%
  somnolence-related adverse events (somnolence, sedation, fatigue and lethargy), number of patients: 17 patients
[1]; concomitant CBD above 10 mg/kg
  ganaxolone tolerability issues with concomitant CBD above 10 mg/kg vs no CBD or CBD at or below 10 mg/kg: greater ganaxolone tolerability issues
[1]; concomitant cannabidiol (n=12)
  patients on concomitant cannabidiol experiencing somnolence-related adverse events: All patients
[1]; of the patients that discontinued
  patients that discontinued Part A because of an adverse event: 4
[2]; FIG. 3
  mean ganaxolone serum concentration in patients with somnolence-related adverse events relative to patients without: higher
[2]; FIG. 4
  mean ganaxolone plasma concentration with concomitant cannabidiol vs without: higher
[2]; FIG. 5, n=11
  ganaxolone plasma concentration in relation to concomitant cannabidiol dose: higher doses of cannabidiol were associated with higher plasma concentrations of ganaxolone
[3]; CDD patients, ganaxolone arm
  median 28-day major motor seizure frequency reduction: 32.2%
[3]; ganaxolone treatment group (N=49), FIG. 10
  efficacy in patients who experienced somnolence-related adverse events vs those who did not: reduced efficacy
[4]
  discontinuation rate in the active treatment arm: less than 5%
  most frequent adverse event: somnolence
  overall tolerability: generally well tolerated
[5]
  pharmacokinetic drug-drug interaction of ganaxolone and CBD: did not provide evidence of a pharmacokinetic drug-drug interaction
CYP3A4/5
  metabolizing enzyme: CYP3A4/5
[6]
  metabolism by enzymes implicated in CBD interactions with other drugs: not significantly metabolized

Source: patent US12390477B2, “Ganaxolone for use in treating tuberous sclerosis complex and seizure disorders” (Immedica Pharma US Inc., priority 2021, dated 2025)
